PubChem BioAssay (NCI)
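All cell lines were grown in 96-well plates and treated with compound for 48 hours. GI50 marks 50% less growth. The concentration for full growth arrest is given as TGI.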

Columns and labels:
Assay in all cases: NCI tumour cell line growth inhibition, 48 h
[1] = test system: SK-MEL-28 melanoma
[2] = test system: A549 NSCLC
[3] = test system: OVCAR-3 ovarian
[4] = test system: HS 578T breast
[5] = test system: HL-60(TB) leukemia
[6] = test system: COLO 205 colon
[7] = test system: CCRF-CEM leukemia
[8] = test system: NCI-H226 lung
[9] = test system: SF-539 CNS
[10] = test system: SF-268 CNS
[11] = test system: ACHN renal
[12] = test system: UACC-257 melanoma
[13] = test system: SK-OV-3 ovarian
[14] = test system: BT-549 breast
[15] = test system: NCI-H460 lung
[16] = test system: UO-31 renal
[17] = test system: OVCAR-5 ovarian
[18] = test system: KM12 colon
[19] = test system: PC-3 prostate
[20] = test system: MOLT-4 leukemia
[21] = test system: SN12C renal
[22] = test system: 786-0 renal
[23] = test system: RPMI-8226 leukemia
[24] = test system: SF-295 CNS
[25] = test system: MDA-MB-231 breast
[26] = test system: OVCAR-4 ovarian
[27] = test system: OVCAR-8 ovarian
[28] = test system: MCF7 breast
[29] = test system: EKVX NSCLC
[30] = test system: UACC-62 melanoma
[31] = test system: MDA-MB-435
[32] = test system: U251 CNS
[33] = test system: SNB-19 CNS
[34] = test system: SNB-75 CNS
[35] = test system: DU-145 prostate
[36] = test system: T-47D breast
[37] = test system: HCC-2998 colon
[38] = test system: HT29 colon
[39] = test system: HOP-62 NSCLC
[40] = test system: NCI-H23 lung
[41] = test system: M14 melanoma
[42] = test system: K-562 leukemia
[43] = test system: SK-MEL-2 melanoma
[44] = test system: MALME-3M melanoma
[45] = test system: TK-10 renal
[46] = test system: HCT-15 colon
[47] = test system: HCT-116 colon
[48] = test system: SK-MEL-5 melanoma
[49] = test system: SW-620 colon
[50] = test system: HOP-92 NSCLC
[51] = test system: CAKI-1 renal
[52] = test system: A498 renal
[53] = test system: IGROV1 ovarian
[54] = test system: SR leukemia
[55] = test system: LOX IMVI melanoma
[56] = test system: NCI/ADR-RES ovarian
[57] = test system: NCI-H522 lung
[58] = test system: RXF 393 renal

## CC(=O)N1CCC(Nc2cc(C(=O)NC[C@H](O)CN3CCc4ccccc4C3)ncn2)CC1
[1]
  GI50: > 100 µM
  TGI: > 100 µM
[2]
  GI50: > 100 µM
  TGI: > 100 µM
[3]
  GI50: > 100 µM
  TGI: > 100 µM
[4]
  GI50: > 100 µM
  TGI: > 100 µM
[5]
  GI50: > 100 µM
  TGI: > 100 µM
[6]
  GI50: > 100 µM
  TGI: > 100 µM
[7]
  GI50: > 100 µM
  TGI: > 100 µM
[8]
  GI50: > 100 µM
  TGI: > 100 µM
[9]
  GI50: > 100 µM
  TGI: > 100 µM
[10]
  GI50: > 100 µM
  TGI: > 100 µM
[11]
  GI50: > 100 µM
  TGI: > 100 µM
[12]
  GI50: > 100 µM
  TGI: > 100 µM
[13]
  GI50: > 100 µM
  TGI: > 100 µM
[14]
  GI50: > 100 µM
  TGI: > 100 µM
[15]
  GI50: > 100 µM
  TGI: > 100 µM
[16]
  GI50: > 100 µM
  TGI: > 100 µM
[17]
  GI50: > 100 µM
  TGI: > 100 µM
[18]
  GI50: > 100 µM
  TGI: > 100 µM
[19]
  GI50: > 100 µM
  TGI: > 100 µM
[20]
  GI50: > 100 µM
  TGI: > 100 µM
[21]
  GI50: > 100 µM
  TGI: > 100 µM
[22]
  GI50: > 100 µM
  TGI: > 100 µM
[23]
  GI50: > 100 µM
  TGI: > 100 µM
[24]
  GI50: > 100 µM
  TGI: > 100 µM
[25]
  GI50: > 100 µM
  TGI: > 100 µM
[26]
  GI50: > 100 µM
  TGI: > 100 µM
[27]
  GI50: > 100 µM
  TGI: > 100 µM
[28]
  GI50: > 100 µM
  TGI: > 100 µM
[29]
  GI50: > 100 µM
  TGI: > 100 µM
[30]
  GI50: > 100 µM
  TGI: > 100 µM
[31]
  GI50: > 100 µM
  TGI: > 100 µM
[32]
  GI50: > 100 µM
  TGI: > 100 µM
[33]
  GI50: > 100 µM
  TGI: > 100 µM
[34]
  GI50: > 100 µM
  TGI: > 100 µM
[35]
  GI50: > 100 µM
  TGI: > 100 µM
[36]
  GI50: > 100 µM
  TGI: > 100 µM
[37]
  GI50: > 100 µM
  TGI: > 100 µM
[38]
  GI50: > 100 µM
  TGI: > 100 µM
[39]
  GI50: > 100 µM
  TGI: > 100 µM
[40]
  GI50: > 100 µM
  TGI: > 100 µM
[41]
  GI50: > 100 µM
  TGI: > 100 µM
[42]
  GI50: > 100 µM
  TGI: > 100 µM
[43]
  GI50: > 100 µM
  TGI: > 100 µM
[44]
  GI50: > 100 µM
  TGI: > 100 µM
[45]
  GI50: > 100 µM
  TGI: > 100 µM
[46]
  GI50: > 100 µM
  TGI: > 100 µM
[47]
  GI50: > 100 µM
  TGI: > 100 µM
[48]
  GI50: > 100 µM
  TGI: > 100 µM
[49]
  GI50: > 100 µM
  TGI: > 100 µM
[50]
  GI50: 91.9 µM
  TGI: > 100 µM
[51]
  GI50: > 100 µM
  TGI: > 100 µM
[52]
  GI50: > 100 µM
  TGI: > 100 µM
[53]
  GI50: > 100 µM
  TGI: > 100 µM
[54]
  GI50: > 100 µM
  TGI: > 100 µM
[55]
  GI50: > 100 µM
  TGI: > 100 µM
[56]
  GI50: > 100 µM
  TGI: > 100 µM
[57]
  GI50: > 100 µM
  TGI: > 100 µM
[58]
  GI50: > 100 µM
  TGI: > 100 µM

## COC(=O)C1=CN(CC2=CC(=O)C(C)=CC2=O)C=C(C(=O)OC)C1c1cc(OC)ccc1OC
[1]
  GI50: 15.4 µM
  TGI: 40.5 µM
[2]
  GI50: 13.5 µM
  TGI: 31.2 µM
[3]
  GI50: 12.5 µM
  TGI: 29.2 µM
[4]
  GI50: 4.54 µM
  TGI: 27.3 µM
[5]
  GI50: 6.8 µM
  TGI: 99.4 µM
[6]
  GI50: 8.56 µM
  TGI: 30.6 µM
[7]
  GI50: 1.73 µM
  TGI: 3.61 µM
[8]
  GI50: 20.1 µM
  TGI: 54.3 µM
[9]
  GI50: 16.6 µM
  TGI: 31.9 µM
[10]
  GI50: 13.8 µM
  TGI: 31.3 µM
[11]
  GI50: 1.85 µM
  TGI: 3.87 µM
[12]
  GI50: 14.1 µM
  TGI: 27.4 µM
[13]
  GI50: 23 µM
  TGI: > 54.8 µM
[14]
  GI50: 17.1 µM
  TGI: 41.7 µM
[15]
  GI50: 20.4 µM
  TGI: > 95.8 µM
[16]
  GI50: 4.94 µM
  TGI: 9.44 µM
[17]
  GI50: 13.9 µM
  TGI: 28 µM
[18]
  GI50: 16.1 µM
  TGI: 31.7 µM
[19]
  GI50: 9.42 µM
  TGI: 24.7 µM
[20]
  GI50: 2.21 µM
[21]
  GI50: 16 µM
  TGI: 33.2 µM
[22]
  GI50: 2.28 µM
  TGI: 5.54 µM
[23]
  GI50: 1.9 µM
  TGI: 4.83 µM
[24]
  GI50: 18.5 µM
  TGI: 38 µM
[25]
  GI50: 15.7 µM
  TGI: 30.2 µM
[26]
  GI50: 12.5 µM
  TGI: 30.9 µM
[27]
  GI50: 12.9 µM
  TGI: 38.4 µM
[28]
  GI50: 22.7 µM
  TGI: > 92.2 µM
[29]
  GI50: 16 µM
  TGI: 31.8 µM
[30]
  GI50: 13.3 µM
  TGI: 26.4 µM
[31]
  GI50: 16.7 µM
  TGI: 31.2 µM
[32]
  GI50: 6.87 µM
  TGI: 20.2 µM
[33]
  GI50: 14.1 µM
  TGI: 48.1 µM
[34]
  GI50: 25.4 µM
  TGI: 74.1 µM
[35]
  GI50: 13.8 µM
  TGI: 26.8 µM
[36]
  GI50: 3.03 µM
  TGI: > 100 µM
[37]
  GI50: 5.79 µM
  TGI: 13.4 µM
[38]
  GI50: 4.71 µM
  TGI: > 100 µM
[39]
  GI50: 19.9 µM
  TGI: 38 µM
[40]
  GI50: 13.4 µM
  TGI: 28.6 µM
[41]
  GI50: 12.1 µM
  TGI: 26.5 µM
[42]
  GI50: 3.85 µM
[43]
  GI50: 24 µM
  TGI: > 73 µM
[44]
  GI50: 20 µM
  TGI: 36 µM
[45]
  GI50: 10.7 µM
  TGI: 36.8 µM
[46]
  GI50: 13.5 µM
  TGI: 30 µM
[47]
  GI50: 1.87 µM
  TGI: 3.28 µM
[48]
  GI50: 14.8 µM
  TGI: 29.1 µM
[49]
  GI50: 3.38 µM
  TGI: 11.6 µM
[50]
  GI50: 0.658 µM
  TGI: 11.9 µM
[51]
  GI50: 6.38 µM
  TGI: 13.5 µM
[52]
  GI50: 15 µM
  TGI: 29.7 µM
[53]
  GI50: 16.6 µM
  TGI: 43.1 µM
[54]
  GI50: 2.59 µM
  TGI: > 22.3 µM
[55]
  GI50: 13.7 µM
  TGI: 26.6 µM
[56]
  GI50: 15.7 µM
  TGI: 39.2 µM
[57]
  GI50: 18.9 µM
  TGI: > 56.2 µM
[58]
  GI50: 3 µM
  TGI: 11.6 µM
